Assay results from patent US20090055945A1, “Method for Producing Nuclear-Transplanted Egg” (priority 2005, published 2009).

Legend:
[1] = test system: oocytes injected with nuclear domains of round spermatids (ROSI); test: Paternal genome DNA methylation, spermatid injection (ROSI); assay type: cell-based, mouse; details: 500 nM TSA
Protocol: The oocytes injected with the nuclear domains of round spermatids obtained by ROSI were cultured for 20 hours in the presence of 20 ng/ml of demecolcine in a medium containing 10 μM 5-azacytidine (5-aza) or 500 nM TSA as an anti-methylation agent. Similarly, injection of mature sperms was carried out (ICSI (intracytoplasmic sperm injection)). Specifically, heads of sperms were separated from the tails by applying pulses to the head-tail junctions by means of a piezo-driven pipette (PrimeTech), and injected into oocytes. The oocytes were not subjected to activation in this case.
The cultured oocytes injected with nuclei were fixed in PBS containing 4% paraformaldehyde at 4° C. overnight, washed in PBS containing 0.1% polyvinyl alcohol (PVA), and blocked in PBS containing 3% bovine serum albumin (BSA) and 0.2% Triton X-100 at 4° C. overnight. Subsequent steps were carried out at room temperature. The fixed oocytes injected with nuclei were permeabilized by treating with 0.2% Triton X-100 in PBS at room temperature. The oocytes were then treated with 2N HCl at room temperature for 50 minutes, neutralized in 100 mM Tris-HCl buffer (pH 8.0) (Non-patent Document 15), and extensively washed with PBS containing 1% BSA.
Next, incubation. with an anti-5-methylcytidine antibody (Eurogentec) in PBS containing 0.1% PVA was carried out for 2 to 3 hours. After extensively being washed, oocytes were stained with Alexa Flour-488 secondary antibody (Molecular Probes), stained with 5 μg/ml 4′,6′-diamidino-2-phenylindole (DAPI) for 30 minutes, and mounted using Vectashield (Vector Laboratory). The specimens were observed using Olympus BX51 microscope (Olympus). All images were captured with DP70 Olympus digital camera using Olympus Analysis software to apply colors to DAPI-stained DNA and merged images.
For quantitative analysis of pronuclear DNA methylation levels, fluorescence images were subjected to densitometric analysis using the program Image-J from the National Institute of Health (http://rsb.info.nih.gov/ij/). For each pronucleus, the relative intensity of methylation of the paternal genome was calculated as a percentage of the fluorescence intensity of the maternal genome. In Table 3, data with (b) and without (a) anti-methylation agent were statistically analyzed by Scheffe tests for multiple mean comparisons using the statistical program SPSS version 12.0 (SPSS Inc.). All percentile data were subjected to arcsine transformation prior to the statistical analysis.

[2] = test system: fibroblasts as donor cells; details: donor fibroblasts cultured with agent prior to nuclear transfer; Non-patent Document 1; cited from earlier work
[3] = test system: oocytes injected with nuclear domains of round spermatids; test: Birth rate after round spermatid injection (ROSI); assay type: in vivo, mouse
Protocol: The effect of the TSA treatment according to the present invention on round spermatid injection (ROSI) was examined. ROSI was carried out according to the method as described in Non-patent Document 13.
Briefly, human choriogonadotropin (hCG) was first administered to female B6D2F1 mice (Japan SLC). Oocytes were collected after 16 hours and placed in a CZB medium. The oocytes were then transferred to a KSOM medium and incubated at 37° C. under 5% CO2.
The oocytes were activated by incubation in Ca^2+-free CZB medium supplemented with 5 mM strontium chloride (SrCl2) for 20 minutes. After 40 to 80 minutes, the oocytes were injected with the nuclear domains of round spermatids (characterized by diameters of about 10 μm and centrally located distinct nucleoli; see Non-patent Document 14) collected from a male C57BL/6 mouse (Japan SLC).
The oocytes injected with nuclei were transferred to KSOM medium containing 5 nM TSA, and further transferred to KSOM medium without TSA 10 hours after the initiation of activation.
Embryos at the 2-cell stage were implanted into oviducts of pseudopregnant mice (surrogate mothers, day 0.5) on the day after the spermatid injection. Fetuses were obtained by cesarean section 19 days after the embryo implantation. The ratio of the number of born fetuses to the number of implanted embryos (birth rate) was determined.

CC(/C=C/C(=O)NO)=C\[C@@H](C)C(=O)c1ccc(N(C)C)cc1 [TSA, trichostatin A]
majority of the methylation of the paternal genome, response to TSA treatment [1]: sensitive | methylation of the maternal genome, response to TSA treatment [1]: resistant | methylation of DNA in the pericentromeric region, response to TSA ([1]; region with high methylation of histone H3 Lys9): resistant | Ratio of methylation level of paternal genome to maternal genome (%) ([1]; Spermatid (ROSI), 20 hours): 42.5^b % | blastocyst development rate [2]: increased | increase in birth rate vs control without TSA ([3]; TSA 5 nM): about 4 fold | Birth rate (%) ([3]; TSA 5 nM until 10 hours after initiation of activation): 26.3% | Birth number ([3]; TSA 5 nM until 10 hours after initiation of activation, 38 implanted embryos): 10
